Experimental data taken from patent US20230219898A1, “COMPOUNDS AND METHODS FOR BLOCKING APOPTOSIS AND INDUCING AUTOPHAGY” (President and Fellows of Harvard College, priority 2020, published 2023).

Tests used:
Beclin 1 = assay: K63-linkage specific ubiquitination of Beclin 1 in MEFs; assay type: cell-based, mouse; details: 6 h
From the text: Anti-K63-linkage specific polyubiquitin antibody was used to conduct secondary immunoprecipitation. Samples were then immunoblotted with anti-Beclin 1 antibody to measure the K63-linkage specific ubiquitination of Beclin 1.

H4 cells = assay: Long-lived protein degradation assay; assay type: cell-based; details: 10 μM, 6 h
Procedure: The rates of long-lived protein turnover in H4 cells treated with indicated compounds (10 μM, 6 h); rapamycin as positive control. Values expressed as fold changes relative to normal control cells. Mean ±s.e.m. from 4 independent experiments (n=4). One-way ANOVA, post hoc Dunnett's test. **P=0.002, 0.0023 (left to right); *P=0.0229; n.s. not significant (P=0.8669).
H4 cells were cultured with L-[3,4,5-^3H(N)]-leucine (0.1 μCi/ml) (PerkinElmer Life Sciences) for 24 h and chased in media with nonradioactive leucine for 18 h to let the degradation of short-lived proteins happen. Then the media was changed and incubated for additional 6 h along with different compounds (10 μM Apt-1, 10 μM ICCB-19, 10 μM ICCB-19i, 1 μM rapamycin). The media were recovered and treated with 10% trichloroacetic acid to separate trichloroacetic acid-soluble (amino acids) and trichloroacetic acid-insoluble (proteins) fractions. The cells were completely dissolved with 1N NaOH. Radioactivity was measured with a liquid scintillation analyzer (PerkinElmer). Long-lived protein degradation was calculated by dividing trichloroacetic acid-soluble radioactivity in the media by total radioactivity detected in the cells and media. The values were expressed as changes in fold from the value obtained in control cells.

MEFs, BV2 cells, BMDMs = assay: Inflammatory responses in cells stimulated with TNFα or PAMPs; assay type: cell-based; details: 10 μM
Procedure: The protein levels of iNOS and Cox2 were determined by immunoblotting.
TNFα production was determined by ELISA.
The cells were then treated with Apt-1 (10 μM) or Nec-1s (10 μM) for 1 h and MDP (10 μg/ml) was added to cells directly and treated for 8 h. TNFα production was determined by ELISA. Mean ±s.d. from technical triplicates (n=3), representative of 3 independent experiments.

TRADD-N and TRADD-C = biological target: T1, TRADD-N and TRADD-C (Homo sapiens, UniProt Q15628); assay: NanoBiT protein-protein interaction assay TRADD-N / TRADD-C; assay type: cell-based; details: 4 h
T1 construct: expression constructs encoding Flag-TRADD-N(1-179) and HA-TRADD-C(180-312); expressed in transfected cells; host or cells: HEK293T
Procedure: Constructs were made encoding LgBiT and SmBiT fused to the N and C termini of TRADD-N and TRADD-C, respectively. HEK293T cells were transfected with these two plasmids for 24 h and then treated with indicated compounds for 4 h. The luminescence indicating the interaction of TRADD-N and TRADD-C was measured using Nano-Glo Live Cell Reagent. Mean ±s.d. from quintuplicates (n=5).
The Nano-Glo Live Cell assay kit (Promega) was used as follows: HEK293T cells were seeded at 7.5×10^3 cells per well in a white, clear-bottom 96-well plate 12 h before transfection (10 ng LgBiT-fused construct and 10 ng SmBiT-fused construct). After 24 h incubation, medium was removed and replaced with 100 μl Opti-MEM medium for 1 h at 37C. The Nano-Glo reagent was prepared as per manufacturer's instructions and added to each well immediately before the luminescence reading was taken. Luminescence was measured at 1 min intervals for 10 min on a plate reader and reported as relative light units (RLU). For quantitative comparison of LgBiT-SmBiT interactions, the peak values at the 2-3 min time point were used. Concentration of compounds used in NanoBiT assay: 10 μM (Apt-1, ICCB-19 or ICCB-19i).

[1] = system: TRADD-N mutants (Y16A, F18A, I72A, R119A, G121A); assay: Thermal shift assay with His-TRADD-N mutants; assay type: binding, human
Procedure: To determine stability, purified proteins were made to a final concentration of […]. SYPRO Orange dye was added to the protein to make a final concentration of 2×. Compounds were added in the mix with a final concentration of 250 μM or as indicated and incubated at 4C for 1 h. The experiments were performed in 384-well plates specific for real-time PCR instrument with a total volume of 20 μl/well. The assay plate was covered with a sheet of optically clear adhesive to seal each well. The assay plate was centrifuged at 800×g for 2 min at 25C to collect solutions in the bottom of the well and remove bubbles. The assay plate was placed into the Applied Biosystems QuantStudio 6 Real-Time PCR System. The reaction was run from 25C, ramping up in increments of 0.05° C./s to a final temperature of 95C with fluorescence detection throughout the experiment to generate a dataset. Melting temperature of the protein (Tm) was determined by performing non-linear fitting of the dataset to a Boltzmann Sigmoidal curve in GraphPad Prism with the following equation: Y=Bottom+(Top-Bottom)/[1+exp(Tm-X/Slope)], where Y=fluorescence emission in arbitrary units; X=temperature; Bottom=baseline fluorescence at low temperature; Top=maximal fluorescence at top of the dataset; Slope=describes the steepness of the curve, with larger values denoting shallower curves.

[2] = system: PS19 mice injected with tau pffs; assay: Tau pff transmission model in PS19 mice, Apt-1 delivered intracerebroventricularly

T1 sequence (Q15628 1-179): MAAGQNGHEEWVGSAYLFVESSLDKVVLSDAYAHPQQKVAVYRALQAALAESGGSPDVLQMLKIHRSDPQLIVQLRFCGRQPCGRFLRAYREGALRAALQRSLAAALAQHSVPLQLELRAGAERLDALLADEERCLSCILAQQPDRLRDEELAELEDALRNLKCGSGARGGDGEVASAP

Row | Compound | Beclin 1 K63 ubiquitination (Beclin 1) | degradation of long-lived proteins (H4 cells) | production of inflammatory target genes and inflammatory cytokines (MEFs, BV2 cells, BMDMs) | NanoBit interaction signal between LgBiT-TRADD-N and TRADD-C-SmBiT (TRADD-N and TRADD-C) | binding with recombinant TRADD-N mutants [1] | survival or behavior of the mice ([2]; 20 mM Apt-1 ICV pump, one month or one week) | accumulation of tangle-like tau aggregates, delayed dosing ([2]; Apt-1 for 1 week, 3 weeks after pffs) | autophagy and levels of tau in hippocampus ([2]; FIG. 3a) | neurofibrillary tangle-like pathogenesis induced by pffs (AT8, MC1) ([2]; FIG. 3b, 3c) | activated pRIPK1+ and apoptotic TUNEL+ cells in CA1 hippocampus ([2]; FIG. 3d, 3e)
1 | O=C(CSC1=NCCN1)NC1CCCCCC1 [ICCB-19] | dramatically enhanced | effectively induced | reduced production | dose-dependently reduced | – | – | – | – | – | –
2 | CN1CCN=C1SC(C(=O)NC1CCCCCC1)c1ccccc1 (centres unmarked) [Compound 30] | dramatically enhanced | effectively induced | reduced production | dose-dependently reduced | reduced relative to WT | no apparent difference in survival or behavior | effectively reduce the accumulation of tangle-like tau aggregates | induce autophagy and reduce the levels of tau | reduced neurofibrillary tangle-like pathogenesis | inhibited
